The text below walks through data of patent US6861542B1, “Dimer amidopropyl dimethyl quaternary compounds” (SurfaTech Corporation, priority 2004, dated 2005).

Data set [1] is described as follows: Anionic compatibility test (titration of 10% sodium lauryl sulfate with 10% solids quat solution). Conditions: 10% solids solution added to 100 ml of 10% sodium lauryl sulfate; for number of ml of solution A at the first point haze or precipitate was noted (end point): test stopped at 100 ml (fully compatible). It is filed as physicochemical. Here is the method: The compounds evaluated were diluted to 10% solids with DI water before evaluation.
A solution of 10% b weight sodium lauryl sulfate was prepared. The sodium lauryl sulfate was obtained from Colonial Chemical in South Pittsburgh Tennessee.
Anionic Compatibility Test
100 ml of solution B was added to a 400 ml beaker. Solution A was slowly added until either a precipitate or haziness was noted. The number of ml of solution was recorded at the first point the haze of precipitate was noted. That point was noted as the end point. The higher the volume used to the end point the better the compatibility. The test is stopped at 100 ml at which point the product is considered fully compatible.

The test system of a further data set is hair. Nature of the data set: Half head conditioning study in commercial baby shampoo. The format is in vivo. Also noted: key: 1: no conditioning; 2: minimal conditioning; 3: measurable conditioning; 4: good conditioning; 5: excellent conditioning. Conditions: 0.5% active by weight in commercial baby shampoo, 10 people, average rounded to nearest whole number. Here is the method:
The baby shampoo compounds were evaluated on 10 people with half head studies. The values reported were the average rounded to the nearest whole number. […] The scale used to evaluate was: [table]

Consider `CCCCCCCCCCCCCCCCCC[N+](C)(C)Cc1ccccc1.[Cl-]` [Stearyl dimethyl denzalkonium chloride, reference compound], for which, in data set [1], the anionic compatibility rating result is reported as “Very Incompatible” and the “number of ml of solution A at the first point haze or precipitate was noted (end point)” value (“number” below) is 1.0 mL.
Take `CCCCCCCCCCCCCCCCCC(=O)NCCCN(C)C.Cl` [Stearylamidopropyl dimethyl ammonium chloride, reference compound]: in data set [1], the anionic compatibility rating result is “mildly compatible” and the “number” value was determined as 20.0 mL. In addition, the “Conditioning Value” in the data set on hair came to 1.
For the compound “Cetyl trimethyl benzyl ammonium chloride [reference compound]”, in data set [1], the anionic compatibility rating result was “Very Incompatible” and the “number” value worked out at 0.5 mL.
As to Dimer benzyl quat [Example 5], in data set [1], the anionic compatibility rating result is “Very” and the “number” value was 88.2 mL. Also, in the data set with hair, the “Conditioning Value” was found to be 5.
For the compound Dimer glyceryl quat [Example 3], in data set [1], the anionic compatibility rating entry was “Fully” and the “number” value was found to be 100.0 mL. Further, the “Conditioning Value” with hair came out at 4.
With Dimer tri-methyl quat [Example 7], in data set [1], the anionic compatibility rating result is “Compatible” and the “number” value was 58.9 mL. Further, in the data set with hair, the “Conditioning Value” turned out to be 4.
As for “Hydrogenated dimer benzyl quat [Example 6]”, in the data set on hair, the “Conditioning Value” came out at 5.
Consider “Hydrogenated dimer glyceryl quat [Example 4]”, for which, in data set [1], the anionic compatibility rating result is “Fully” and the “number” value was 100.0 mL. Further, the “Conditioning Value” in the data set with hair is given as 4.
In the case of “Hydrogenated dimer tri-methyl [Example 8]”, in data set [1], the anionic compatibility rating result is “Compatible” and the “number” value amounted to 59.6 mL. In addition, the “Conditioning Value” in the data set on hair is given as 4.
